ChEMBL document CHEMBL2434896, “Carbonic anhydrase inhibitors. Synthesis of heterocyclic 4-substituted pyridine-3-sulfonamide derivatives and their inhibition of the human cytosolic isozymes I and II and transmembrane tumor-associated isozymes IX and XII” (Eur J Med Chem, 2013)
The source made the active and inactive calls. The calls are words filed in the database; no cut-off is given here.

What was measured:
[1] = test system: Malme-3M; assay: Growth inhibition of human MALME-3M cells at 10 uM after 48 hrs by sulforhodamine B assay; type: functional; conditions: read-out: GI
[2] = test system: LOX IMVI; assay: Growth inhibition of human LOXIMVI cells at 10 uM after 48 hrs by sulforhodamine B assay; type: functional
[3] = test system: SNB-19; assay: Growth inhibition of human SNB19 cells at 10 uM after 48 hrs by sulforhodamine B assay; type: functional
[4] = test system: SF-539; assay: Growth inhibition of human SF539 cells at 10 uM after 48 hrs by sulforhodamine B assay; type: functional; conditions: SF-539, 48 h, read-out: GI
[5] = test system: SF-268; assay: Growth inhibition of human SF268 cells at 10 uM after 48 hrs by sulforhodamine B assay; type: functional
[6] = test system: KM12; assay: Growth inhibition of human KM12 cells at 10 uM after 48 hrs by sulforhodamine B assay; type: functional
[7] = test system: HT-29; assay: Growth inhibition of human HT-29 cells at 10 uM after 48 hrs by sulforhodamine B assay; type: functional; conditions: HT-29, 48 h, read-out: GI
[8] = test system: HCT-15; assay: Growth inhibition of human HCT15 cells at 10 uM after 48 hrs by sulforhodamine B assay; type: functional; conditions: HCT-15, 48 h, read-out: GI
[9] = test system: HCT-116; assay: Growth inhibition of human HCT116 cells at 10 uM after 48 hrs by sulforhodamine B assay; type: functional; conditions: HCT-116, 48 h, read-out: GI
[10] = test system: COLO 205; assay: Growth inhibition of human COLO205 cells at 10 uM after 48 hrs by sulforhodamine B assay; type: functional; conditions: COLO 205, 48 h, read-out: GI
[11] = test system: NCI-H322M; assay: Growth inhibition of human NCI-H322M cells at 10 uM after 48 hrs by sulforhodamine B assay; type: functional
[12] = test system: NCI-H226; assay: Growth inhibition of human NCI-H226 cells at 10 uM after 48 hrs by sulforhodamine B assay; type: functional
[13] = test system: HOP-92; assay: Growth inhibition of human HOP92 cells at 10 uM after 48 hrs by sulforhodamine B assay; type: functional; conditions: HOP-92, 48 h, read-out: GI
[14] = test system: HOP-62; assay: Growth inhibition of human HOP62 cells at 10 uM after 48 hrs by sulforhodamine B assay; type: functional
[15] = test system: A549; assay: Growth inhibition of human A549/ATCC cells at 10 uM after 48 hrs by sulforhodamine B assay; type: functional; conditions: A549, 48 h, read-out: GI
[16] = test system: SR; assay: Growth inhibition of human SR cells at 10 uM after 48 hrs by sulforhodamine B assay; type: functional; conditions: read-out: GI
[17] = test system: MOLT-4; assay: Growth inhibition of human MOLT4 cells at 10 uM after 48 hrs by sulforhodamine B assay; type: functional; conditions: MOLT-4, 48 h, read-out: GI
[18] = test system: K562; assay: Growth inhibition of human K562 cells at 10 uM after 48 hrs by sulforhodamine B assay; type: functional
[19] = test system: HL-60(TB); assay: Growth inhibition of human HL-60(TB) cells at 10 uM after 48 hrs by sulforhodamine B assay; type: functional
[20] = test system: CCRF-CEM; assay: Growth inhibition of human CCRF-CEM cells at 10 uM after 48 hrs by sulforhodamine B assay; type: functional; conditions: read-out: GI
[21] = biological target: Carbonic anhydrase 9 (Homo sapiens, UniProt Q16790); assay: Inhibition of human carbonic anhydrase 9 after 15 mins by stopped flow CO2 hydration assay
[22] = test system: MDA-MB-468; assay: Growth inhibition of human MDA-MB-468 cells at 10 uM after 48 hrs by sulforhodamine B assay; type: functional
[23] = test system: T47D; assay: Growth inhibition of human T47D cells at 10 uM after 48 hrs by sulforhodamine B assay; type: functional
[24] = test system: BT-549; assay: Growth inhibition of human BT549 cells at 10 uM after 48 hrs by sulforhodamine B assay; type: functional; conditions: BT-549, 48 h, read-out: GI
[25] = test system: Hs-578T; assay: Growth inhibition of human Hs 578T cells at 10 uM after 48 hrs by sulforhodamine B assay; type: functional
[26] = test system: MDA-MB-231; assay: Growth inhibition of human MDA-MB-231 cells at 10 uM after 48 hrs by sulforhodamine B assay; type: functional
[27] = test system: MCF7; assay: Growth inhibition of human MCF7 cells at 10 uM after 48 hrs by sulforhodamine B assay; type: functional; conditions: MCF7, 48 h, read-out: GI
[28] = test system: DU-145; assay: Growth inhibition of human DU145 cells at 10 uM after 48 hrs by sulforhodamine B assay; type: functional
[29] = test system: UO-31; assay: Growth inhibition of human UO31 cells at 10 uM after 48 hrs by sulforhodamine B assay; type: functional; conditions: UO-31, 48 h, read-out: GI
[30] = test system: TK-10; assay: Growth inhibition of human TK10 cells at 10 uM after 48 hrs by sulforhodamine B assay; type: functional
[31] = test system: SN12C; assay: Growth inhibition of human SN12C cells at 10 uM after 48 hrs by sulforhodamine B assay; type: functional
[32] = test system: RXF 393; assay: Growth inhibition of human RXF393 cells at 10 uM after 48 hrs by sulforhodamine B assay; type: functional
[33] = test system: CAKI-1; assay: Growth inhibition of human CAKI-1 cells at 10 uM after 48 hrs by sulforhodamine B assay; type: functional; conditions: CAKI-1, 48 h, read-out: GI
[34] = test system: A498; assay: Growth inhibition of human A498 cells at 10 uM after 48 hrs by sulforhodamine B assay; type: functional
[35] = test system: 786-0; assay: Growth inhibition of human 786-0 cells at 10 uM after 48 hrs by sulforhodamine B assay; type: functional; conditions: 786-0, 48 h, read-out: GI
[36] = test system: NCI/ADR-RES; assay: Growth inhibition of human NCI-ADR-RES cells at 10 uM after 48 hrs by sulforhodamine B assay; type: functional
[37] = test system: OVCAR-8; assay: Growth inhibition of human OVCAR8 cells at 10 uM after 48 hrs by sulforhodamine B assay; type: functional; conditions: OVCAR-8, 48 h, read-out: GI
[38] = test system: OVCAR-5; assay: Growth inhibition of human OVCAR5 cells at 10 uM after 48 hrs by sulforhodamine B assay; type: functional
[39] = test system: OVCAR-3; assay: Growth inhibition of human OVCAR3 cells at 10 uM after 48 hrs by sulforhodamine B assay; type: functional; conditions: OVCAR-3, 48 h, read-out: GI
[40] = test system: IGROV-1; assay: Growth inhibition of human IGROV1 cells at 10 uM after 48 hrs by sulforhodamine B assay; type: functional
[41] = test system: UACC-62; assay: Growth inhibition of human UACC62 cells at 10 uM after 48 hrs by sulforhodamine B assay; type: functional
[42] = test system: UACC-257; assay: Growth inhibition of human UACC257 cells at 10 uM after 48 hrs by sulforhodamine B assay; type: functional
[43] = test system: SK-MEL-28; assay: Growth inhibition of human SK-MEL-28 cells at 10 uM after 48 hrs by sulforhodamine B assay; type: functional, cell-based
[44] = test system: SK-MEL-2; assay: Growth inhibition of human SK-MEL-2 cells at 10 uM after 48 hrs by sulforhodamine B assay; type: functional
[45] = test system: M14; assay: Growth inhibition of human M14 cells at 10 uM after 48 hrs by sulforhodamine B assay; type: functional

`CCc1cc(CC)n(-c2ccncc2S(N)(=O)=O)n1` was tested, and the inhibition of growth at 10 µM [1] was 9%, the “growth inhibition (GI)” value [2] was “inactive” and the “growth inhibition (GI)” value [3] was “inactive”. For the same compound, the inhibition of growth at 10 µM [4] was 4%, the “growth inhibition (GI)” value [5] was “inactive” and the “growth inhibition (GI)” value [6] was “inactive”. For the same compound, the inhibition of growth at 10 µM [7] was 1%, the inhibition of growth at 10 µM [8] was 4% and the inhibition of growth at 10 µM [9] was 1%. For the same compound, the inhibition of growth at 10 µM [10] was 13%, the “growth inhibition (GI)” value [11] was “inactive” and the “growth inhibition (GI)” value [12] was “inactive”. The inhibition of growth at 10 µM [13] was 1%, the “growth inhibition (GI)” value [14] was “inactive” and the inhibition of growth at 10 µM [15] was 1%. For the same compound, the inhibition of growth at 10 µM [16] was 5%, the inhibition of growth at 10 µM [17] was 2% and the “growth inhibition (GI)” value [18] was “inactive”. The “growth inhibition (GI)” value [19] was “inactive”, the inhibition of growth at 10 µM [20] was 4% and the Ki [21] was 31.7 nM. The “growth inhibition (GI)” value [22] was “inactive”, the “growth inhibition (GI)” value [23] was “inactive” and the inhibition of growth at 10 µM [24] was 2%. For the same compound, the “growth inhibition (GI)” value [25] was “inactive”, the “growth inhibition (GI)” value [26] was “inactive” and the inhibition of growth at 10 µM [27] was 10%. For the same compound, the “growth inhibition (GI)” value [28] was “inactive”, the inhibition of growth at 10 µM [29] was 8% and the “growth inhibition (GI)” value [30] was “inactive”. The “growth inhibition (GI)” value [31] was “inactive”, the “growth inhibition (GI)” value [32] was “inactive” and the inhibition of growth at 10 µM [33] was 1%. The “growth inhibition (GI)” value [34] was “inactive”, the inhibition of growth at 10 µM [35] was 2% and the “growth inhibition (GI)” value [36] was “inactive”. The inhibition of growth at 10 µM [37] was 9%, the “growth inhibition (GI)” value [38] was “inactive” and the inhibition of growth at 10 µM [39] was 1%. For the same compound, the “growth inhibition (GI)” value [40] was “inactive”, the “growth inhibition (GI)” value [41] was “inactive” and the “growth inhibition (GI)” value [42] was “inactive”. For the same compound, the “growth inhibition (GI)” value [43] was “inactive”, the “growth inhibition (GI)” value [44] was “inactive” and the “growth inhibition (GI)” value [45] was “inactive”.
